Results: patent US7880010B2, “Crystalline forms of a dimethylphenyl compound” (Theravance, Inc., priority 2006, dated 2011)

Key:
hM2 receptor = target: T1, hM2 receptor (Homo sapiens, UniProt P08172); test: Blockade of agonist-mediated [35S]GTPγS binding (Assay B); format: biochemical; settings: CHO-K1 cells expressing the hM2 receptor
T1 construct: expressed in transfected cells; host or cells: CHO / CHO-K1
T1 sequence (P08172 1-466): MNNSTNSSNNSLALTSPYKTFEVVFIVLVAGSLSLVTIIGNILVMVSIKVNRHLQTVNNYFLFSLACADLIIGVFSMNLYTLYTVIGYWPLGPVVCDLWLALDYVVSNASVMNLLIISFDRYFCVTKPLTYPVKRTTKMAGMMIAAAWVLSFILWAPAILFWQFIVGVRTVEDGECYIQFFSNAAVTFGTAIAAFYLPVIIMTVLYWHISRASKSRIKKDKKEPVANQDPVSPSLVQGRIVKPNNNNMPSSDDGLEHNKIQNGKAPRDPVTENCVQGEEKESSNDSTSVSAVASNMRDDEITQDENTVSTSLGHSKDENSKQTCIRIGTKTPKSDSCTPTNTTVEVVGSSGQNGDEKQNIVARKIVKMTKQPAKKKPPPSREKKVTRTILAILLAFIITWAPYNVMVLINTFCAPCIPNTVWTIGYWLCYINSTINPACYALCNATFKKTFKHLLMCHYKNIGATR
Method: In this functional assay, the functional potency of a test compound as an antagonist of the hM2 receptor was determined by measuring the ability of the test compound to block oxotremorine-stimulated [^35S]GTPγS binding in CHO-K1 cells expressing the hM2 receptor.
At the time of use, frozen membranes were thawed and then diluted in assay buffer with a final target tissue concentration of 5 to 10 μg protein per well. The membranes were briefly homogenized using a Polytron PT-2100 tissue disrupter and then added to the assay plates.
The EC90 value (effective concentration for 90% maximal response) for stimulation of [^35S]GTPγS binding by the agonist oxotremorine was determined in each experiment.
To determine the ability of a test compound to inhibit oxotremorine-stimulated [^35S]GTPγS binding, the following was added to each well of 96 well plates: 25 μL of assay buffer with [^35S]GTPγS (0.4 nM), 25 μL of oxotremorine(EC90) and GDP (3 uM), 25 μL of diluted test compound and 25 μL CHO cell membranes expressing the hM2 receptor. […] Microscint-20 scintillation liquid (50 μL) was added to each well, and each plate was sealed and radioactivity counted on a Topcounter (PerkinElmer). Data were analyzed by nonlinear regression analysis with the GraphPad Prism Software package (GraphPad Software, Inc., San Diego, Calif.) using the non-linear regression, one-site competition equation. […]

hM1 receptor = target: T2, hM1 receptor (Homo sapiens, UniProt P11229); test: Blockade of agonist-mediated calcium release via FLIPR (Assay C); format: cell-based; settings: CHO cells stably expressing hM1
T2 construct: expressed in transfected cells; host or cells: CHO
T2 sequence (P11229 1-460): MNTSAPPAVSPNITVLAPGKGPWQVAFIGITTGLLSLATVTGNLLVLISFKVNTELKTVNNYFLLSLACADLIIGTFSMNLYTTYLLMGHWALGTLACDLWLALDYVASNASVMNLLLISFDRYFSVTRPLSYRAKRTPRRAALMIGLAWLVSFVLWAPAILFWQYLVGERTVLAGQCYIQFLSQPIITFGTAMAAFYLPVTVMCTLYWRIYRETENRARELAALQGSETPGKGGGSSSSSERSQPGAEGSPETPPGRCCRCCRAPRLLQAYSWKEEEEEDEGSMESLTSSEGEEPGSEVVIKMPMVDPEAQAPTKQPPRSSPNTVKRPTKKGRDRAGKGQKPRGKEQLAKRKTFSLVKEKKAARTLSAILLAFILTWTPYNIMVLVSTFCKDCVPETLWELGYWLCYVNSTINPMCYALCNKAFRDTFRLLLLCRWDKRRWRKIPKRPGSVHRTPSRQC
Method: (§1) In this functional assay, the functional potency of a test compound as an antagonist of hM1, hM3 and […] receptors was determined by measuring the ability of the test compound to inhibit agonist-mediated increases in intracellular calcium.
(§2) CHO cells stably expressing the receptors were seeded into 96-well FLIPR plates the night before the assay was done. Seeded cells were washed twice with FLIPR buffer (10 mM HEPES, pH 7.4, 2 mM calcium chloride, 2.5 mM probenecid in Hank's Buffered Salt Solution (HBSS) without calcium and magnesium) using Cellwash (MTX Labsystems, Inc.) to remove growth media. After washing, each well contained 50 μL of FLIPR buffer. The cells were then incubated with 50 μL/well of 4 μM FLUO-4AM (a 2× solution was made) for 40 minutes at 37° C., 5% carbon dioxide. Following the dye incubation period, cells were washed two times with FLIPR buffer, leaving a final volume of 50 μL in each well.
(§3) The dose-dependent stimulation of intracellular Ca^2+ release for oxotremorine was determined so that the test compound could be measured against oxotremorine stimulation at an EC90 concentration. Cells were first incubated with compound dilution buffer for 20 minutes and then oxotremorine was added. […]
(§4) The parameters used for the FLIPR were: exposure length of 0.4 seconds, laser strength of 0.5 watts, excitation wavelength of 488 nm, and emission wavelength of 550 nm. Baseline was determined by measuring the change in fluorescence for 10 seconds prior to addition of oxotremorine. Following oxotremorine stimulation, the FLIPR continuously measured the change of fluorescence every 0.5 to 1 second for 1.5 minutes to capture the maximum fluorescence change.
(§5) The change of fluorescence was expressed as maximum fluorescence minus baseline fluorescence for each well. The raw data was analyzed against the logarithm of test compound concentration by nonlinear regression with GraphPad Prism (GraphPad Software, Inc., San Diego, Calif.) using the built-in model for sigmoidal dose-response. […]

hM3 receptor = target: T3, hM3 receptor (Homo sapiens, UniProt P20309); test: as above; format: cell-based; settings: CHO cells stably expressing hM3
T3 construct: expressed in transfected cells; host or cells: CHO
Method: as §1, §2, §3, §4, §5

cM5 receptor = test: as above; format: cell-based; settings: CHO cells stably expressing cM5
Method: as §1, §2, §3, §4, §5

T3 sequence (P20309 whole entry): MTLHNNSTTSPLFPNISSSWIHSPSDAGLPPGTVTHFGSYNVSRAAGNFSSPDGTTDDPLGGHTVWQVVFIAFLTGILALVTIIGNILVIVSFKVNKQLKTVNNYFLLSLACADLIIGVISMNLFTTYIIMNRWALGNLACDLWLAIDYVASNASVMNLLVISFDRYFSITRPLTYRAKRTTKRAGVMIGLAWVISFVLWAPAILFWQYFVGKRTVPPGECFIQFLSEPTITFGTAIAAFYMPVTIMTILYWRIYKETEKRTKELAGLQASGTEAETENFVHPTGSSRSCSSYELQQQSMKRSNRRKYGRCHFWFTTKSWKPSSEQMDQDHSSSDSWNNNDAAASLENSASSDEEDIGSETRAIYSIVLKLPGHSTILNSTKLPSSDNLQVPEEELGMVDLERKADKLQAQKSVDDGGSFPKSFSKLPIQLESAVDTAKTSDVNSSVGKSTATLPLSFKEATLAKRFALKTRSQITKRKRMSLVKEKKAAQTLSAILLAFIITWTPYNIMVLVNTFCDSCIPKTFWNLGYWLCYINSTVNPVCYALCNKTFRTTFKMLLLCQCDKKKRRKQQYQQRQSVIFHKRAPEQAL

Kobs for blockade of oxotremorine-stimulated [35S]GTPγS binding (hM2 receptor): less than 10 nM
Kobs for blockade of agonist-mediated calcium release (hM1 receptor): less than 10 nM
Kobs for blockade of agonist-mediated calcium release (hM3 receptor): less than 10 nM
Compound: Cc1cc(NC(=O)CCN2CCC(OC(=O)Nc3ccccc3-c3ccccc3)CC2)c(C)cc1CNC[C@H](O)c1ccc(O)c(NC=O)c1 [compound of formula I, biphenyl-2-ylcarbamic acid 1-[2-(4-{[(R)-2-(3-formylamino-4-hydroxyphenyl)-2-hydroxyethylamino]methyl}-2,5-dimethylphenylcarbamoyl)ethyl]-piperidin-4-yl ester]
Kobs for blockade of agonist-mediated calcium release (cM5 receptor): less than 10 nM
